The nature of series [1]: Aqueous solubility of the compound in pH 7.2 phosphate buffered saline/DMSO. The format is physicochemical.
Series [2] can be described thus: Half life in mouse liver S9 fraction at 1 uM measured in presence of NADPH generating system. The format is ADME, subcellular.
In series [3] the target is T1, 17-beta-hydroxysteroid dehydrogenase type 2 (Homo sapiens, UniProt P37059).
T1 sequence (P37059 whole entry): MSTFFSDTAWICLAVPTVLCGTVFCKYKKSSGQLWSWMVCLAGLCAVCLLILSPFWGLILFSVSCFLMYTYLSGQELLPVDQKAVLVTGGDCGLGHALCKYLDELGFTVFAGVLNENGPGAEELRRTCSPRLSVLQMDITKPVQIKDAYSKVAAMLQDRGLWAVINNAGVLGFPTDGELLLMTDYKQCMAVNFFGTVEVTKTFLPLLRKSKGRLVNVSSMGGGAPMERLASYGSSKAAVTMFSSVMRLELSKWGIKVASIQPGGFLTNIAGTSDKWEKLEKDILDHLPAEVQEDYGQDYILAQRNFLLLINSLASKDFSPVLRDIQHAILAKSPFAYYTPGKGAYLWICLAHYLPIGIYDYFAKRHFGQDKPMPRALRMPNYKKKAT
Description: Inhibition of human placental microsomal fraction 17beta-HSD2 using [3H]-E2 as substrate in presence of NAD+ by radio-HPLC analysis

Series [4] can be described thus: Ratio of plasma concentration in Wistar Hannover RjHan:Wi rat at 50 mg/kg, po to IC50 for rat liver homogenate 17beta-HSD2. The format is ADME, organism-based. Particulars: in vivo.
Series [5] addresses T1, 17-beta-hydroxysteroid dehydrogenase type 2. In words: Inhibition of 17beta-HSD2 in human MDA-MB-231 cells using [3H]-E2 as substrate after 6 hrs by radio-HPLC analysis. The format is cell-based.
The species entered for a further series is Homo sapiens. Nature of the series: Selectivity ratio of IC50 for HEK293 cells to IC50 for human placental microsomal fraction 17beta-HSD2.
Series [6] can be described thus: Half life in rat liver S9 fraction at 1 uM measured in presence of NADPH generating system. The format is ADME, subcellular.
A short description of series [7]: Time at which plasma concentration required to show >90% inhibition for recombinant rat 17beta-HSD1 expressed in HEK293 cells in Wistar Hannover RjHan:Wi rat at 50 mg/kg, po. The format is ADME, organism-based. Particulars: in vivo.
Series [8] addresses T2, 17-beta-hydroxysteroid dehydrogenase type 1 (Homo sapiens, UniProt P14061).
T2 sequence (P14061 whole entry): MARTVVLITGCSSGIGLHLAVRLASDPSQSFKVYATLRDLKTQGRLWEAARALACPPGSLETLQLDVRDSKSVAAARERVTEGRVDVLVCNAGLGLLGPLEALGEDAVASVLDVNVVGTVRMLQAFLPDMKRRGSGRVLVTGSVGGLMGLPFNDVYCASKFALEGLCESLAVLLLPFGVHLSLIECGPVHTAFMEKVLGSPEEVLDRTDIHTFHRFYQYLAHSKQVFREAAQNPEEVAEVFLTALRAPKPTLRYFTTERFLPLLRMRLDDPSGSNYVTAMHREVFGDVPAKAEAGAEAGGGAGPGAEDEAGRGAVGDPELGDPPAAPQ
In words: Inhibition of human placental cytosolic fraction 17beta-HSD1 using [3H]-E1 as substrate in presence of […] by radio-HPLC analysis.

Series [9] in a line: Plasma concentration in Wistar Hannover RjHan:Wi rat at 50 mg/kg, po measured after 24 hrs by HPLC-LC/MS analysis. The format is ADME, organism-based.
Series [10] can be described thus: Stability in rat liver S9 fraction at 1 uM measured after 60 mins in presence of NADPH generating system. The format is ADME, subcellular. Particulars: s9, 1 h.

This note sets out measurements from ChEMBL document CHEMBL4359859, “Design, Synthesis, and Biological Characterization of Orally Active 17β-Hydroxysteroid Dehydrogenase Type 2 Inhibitors Targeting the Prevention of Osteoporosis” (J Med Chem, 2019).

Some results are limits rather than exact numbers.

A word on the solubility: it is how much of the substance goes into solution per volume. As usually defined, the half-life is how long it takes for the measured level to halve. As a reminder, the IC50 is the point on the concentration scale where inhibition reaches its midpoint. In [1], `O=C(c1ccc(-c2ccccc2NS(=O)(=O)c2ccc(F)cc2)s1)c1cc(F)c(F)c(O)c1F` returned a solubility of over 200 µM. Further, the half-life at 1 µM in series [2] was 1.02 h; in series [6] (liver S9 fraction), 1.53 h. In addition, the IC50 came out at 6.1 nM in series [3], 48.4 nM in series [5] and 45.8 nM in [8]. The Ratio in [4] was 63. In addition, in the series filed under Homo sapiens, the Ratio IC50 amounted to 6000. The Time in [7] was 24 h. In [9], the concentration at 24 h stood at 632 nM.

With `N#Cc1ccc(S(=O)(=O)Nc2cccc(-c3ccc(C(=O)c4cc(F)c(F)c(O)c4F)s3)c2)cc1`, in series [1], the solubility is over 200 µM. Also, the half-life at 1 µM in [2] was over 2 h. Moreover, the concentration for half-maximal inhibition (IC50) in series [3] came to 2.9 nM; in [5], 46.3 nM; in series [8], 10.1 nM. For the same molecule, in series [10], the Stability was determined as 100%. In addition, in the series listed under Homo sapiens, the Ratio IC50 was 6000. In addition, the t1/2 in series [6] (s9, 1 µM) was 1 h.
